PubChem BioAssay (NCI)
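Cultured in 96-well plates, cells were exposed to test compound for 48 hours across five concentrations. Abbreviation: GI50, concentration required for 50% inhibition of growth. TGI denotes the concentration required for complete inhibition of growth.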

Columns and labels:
Test in all cases: NCI-60 cell line screen, 48 h
[1] = system: NCI/ADR-RES ovarian
[2] = system: NCI-H23 lung
[3] = system: NCI-H460 lung
[4] = system: RXF 393 renal
[5] = system: UACC-62 melanoma
[6] = system: K-562 leukemia
[7] = system: SK-OV-3 ovarian
[8] = system: RPMI-8226 leukemia
[9] = system: SNB-19 CNS
[10] = system: COLO 205 colon
[11] = system: SK-MEL-28 melanoma
[12] = system: HCT-116 colon
[13] = system: SR leukemia
[14] = system: CCRF-CEM leukemia
[15] = system: MALME-3M melanoma
[16] = system: MDA-MB-231 breast
[17] = system: OVCAR-8 ovarian
[18] = system: T-47D breast
[19] = system: HT29 colon
[20] = system: A498 renal
[21] = system: A549 NSCLC
[22] = system: HCT-15 colon
[23] = system: HOP-62 NSCLC
[24] = system: UACC-257 melanoma
[25] = system: MDA-MB-435
[26] = system: PC-3 prostate
[27] = system: NCI-H522 lung
[28] = system: SN12C renal
[29] = system: DU-145 prostate
[30] = system: OVCAR-5 ovarian
[31] = system: MOLT-4 leukemia
[32] = system: HL-60(TB) leukemia
[33] = system: KM12 colon
[34] = system: ACHN renal
[35] = system: OVCAR-4 ovarian
[36] = system: NCI-H226 lung
[37] = system: SF-539 CNS
[38] = system: HCC-2998 colon
[39] = system: MCF7 breast
[40] = system: SK-MEL-2 melanoma
[41] = system: TK-10 renal
[42] = system: HS 578T breast
[43] = system: SNB-75 CNS
[44] = system: U251 CNS
[45] = system: SK-MEL-5 melanoma
[46] = system: M14 melanoma
[47] = system: OVCAR-3 ovarian
[48] = system: SF-295 CNS
[49] = system: EKVX NSCLC
[50] = system: 786-0 renal
[51] = system: SF-268 CNS
[52] = system: SW-620 colon
[53] = system: LOX IMVI melanoma
[54] = system: IGROV1 ovarian
[55] = system: UO-31 renal
[56] = system: BT-549 breast
[57] = system: CAKI-1 renal

How did the GI50 [1] turn out when O=C(Nc1ccccc1O)c1ccc(CNC(=O)c2sccc2Nc2ccnc(C(F)(F)F)c2)cc1 was run?
The GI50 was 4.67 µM.

What about the TGI [1] of the same compound?
The TGI was 46.9 µM.

And the GI50 [2]?
The GI50 was 5.73 µM.

And the TGI [2]?
The TGI was 41.2 µM.

And the GI50 [3]?
Its GI50 is 5.19 µM.

And the TGI [3]?
The TGI was 21.4 µM.

What about the GI50 [4] of the same compound?
Its GI50 is 3.28 µM.

What about the TGI [4] of the same compound?
The TGI was 15.6 µM.

What about the GI50 [5] of the same compound?
The GI50 was 4.13 µM.

What about the TGI [5] of the same compound?
The TGI was 20 µM.

And the GI50 [6]?
Its GI50 is 5.72 µM.

What about the TGI [6] of the same compound?
The TGI was 62.5 µM.

And the GI50 [7]?
Its GI50 is 10.6 µM.

And the TGI [7]?
Its TGI is 37.3 µM.

And the GI50 [8]?
The GI50 was 3.59 µM.

And the TGI [8]?
Its TGI is 36.2 µM.

And the GI50 [9]?
The GI50 was 13.2 µM.

What about the TGI [9] of the same compound?
The TGI was 31.1 µM.

What about the GI50 [10] of the same compound?
The GI50 was 5.38 µM.

And the TGI [10]?
The TGI was 19.2 µM.

And the GI50 [11]?
Its GI50 is 5.57 µM.

And the TGI [11]?
The TGI was 46.3 µM.

And the GI50 [12]?
The GI50 was 4.61 µM.

What about the TGI [12] of the same compound?
The TGI was 15.2 µM.

What about the GI50 [13] of the same compound?
Its GI50 is 4.19 µM.

What about the TGI [13] of the same compound?
The TGI was 61.4 µM.

And the GI50 [14]?
Its GI50 is 1.01 µM.

And the TGI [14]?
The TGI was greater than 100 µM.

What about the GI50 [15] of the same compound?
The GI50 was 2.5 µM.

What about the TGI [15] of the same compound?
The TGI was 21.5 µM.

What about the GI50 [16] of the same compound?
The GI50 was 9.05 µM.

And the TGI [16]?
The TGI was 27.4 µM.

What about the GI50 [17] of the same compound?
Its GI50 is 3.44 µM.

And the TGI [17]?
Its TGI is 41.2 µM.

And the GI50 [18]?
Its GI50 is 3.45 µM.

And the TGI [18]?
The TGI was 29.9 µM.

And the GI50 [19]?
The GI50 was 6.21 µM.

What about the TGI [19] of the same compound?
Its TGI is 27 µM.

And the GI50 [20]?
The GI50 was 2.62 µM.

What about the TGI [20] of the same compound?
Its TGI is 9.7 µM.

What about the GI50 [21] of the same compound?
Its GI50 is 8.68 µM.

And the TGI [21]?
Its TGI is 28.2 µM.

And the GI50 [22]?
Its GI50 is 6.54 µM.

And the TGI [22]?
The TGI was 26.8 µM.

And the GI50 [23]?
Its GI50 is 10.9 µM.

And the TGI [23]?
Its TGI is 42.7 µM.

What about the GI50 [24] of the same compound?
Its GI50 is 4.61 µM.

And the TGI [24]?
The TGI was 38.1 µM.

What about the GI50 [25] of the same compound?
The GI50 was 4.09 µM.

What about the TGI [25] of the same compound?
Its TGI is 17.8 µM.

And the GI50 [26]?
Its GI50 is 4.56 µM.

What about the TGI [26] of the same compound?
Its TGI is 36.8 µM.

And the GI50 [27]?
Its GI50 is 5.06 µM.

And the TGI [27]?
Its TGI is 27.7 µM.

What about the GI50 [28] of the same compound?
The GI50 was 13.7 µM.

What about the TGI [28] of the same compound?
The TGI was 55.1 µM.

What about the GI50 [29] of the same compound?
Its GI50 is 6.1 µM.

And the TGI [29]?
The TGI was 21 µM.

And the GI50 [30]?
Its GI50 is 5.9 µM.

And the TGI [30]?
Its TGI is 24.6 µM.

What about the GI50 [31] of the same compound?
The GI50 was 1.78 µM.

What about the TGI [31] of the same compound?
The TGI was 32.7 µM.

And the GI50 [32]?
The GI50 was 6.27 µM.

What about the TGI [32] of the same compound?
The TGI was 44.8 µM.

What about the GI50 [33] of the same compound?
Its GI50 is 12.2 µM.

And the TGI [33]?
The TGI was 32 µM.

What about the GI50 [34] of the same compound?
The GI50 was 4.95 µM.

What about the TGI [34] of the same compound?
Its TGI is 26.5 µM.

What about the GI50 [35] of the same compound?
The GI50 was 5.35 µM.

What about the TGI [35] of the same compound?
The TGI was greater than 100 µM.

What about the GI50 [36] of the same compound?
The GI50 was 8.07 µM.

What about the TGI [36] of the same compound?
Its TGI is 45 µM.

What about the GI50 [37] of the same compound?
The GI50 was 3.56 µM.

And the TGI [37]?
Its TGI is 31.8 µM.

What about the GI50 [38] of the same compound?
Its GI50 is 10.1 µM.

What about the TGI [38] of the same compound?
The TGI was 22.4 µM.

What about the GI50 [39] of the same compound?
The GI50 was 2.65 µM.

What about the TGI [39] of the same compound?
Its TGI is 41.8 µM.

What about the GI50 [40] of the same compound?
The GI50 was 6.97 µM.

And the TGI [40]?
The TGI was 28.5 µM.

And the GI50 [41]?
The GI50 was 4.76 µM.

And the TGI [41]?
Its TGI is 22.7 µM.

What about the GI50 [42] of the same compound?
Its GI50 is 12.7 µM.

What about the TGI [42] of the same compound?
The TGI was greater than 100 µM.

And the GI50 [43]?
Its GI50 is 4.96 µM.

And the TGI [43]?
Its TGI is 44.5 µM.

And the GI50 [44]?
Its GI50 is 5.44 µM.

And the TGI [44]?
The TGI was 20.8 µM.

What about the GI50 [45] of the same compound?
Its GI50 is 1.94 µM.

What about the TGI [45] of the same compound?
The TGI was 4.7 µM.

What about the GI50 [46] of the same compound?
The GI50 was 7.87 µM.

What about the TGI [46] of the same compound?
The TGI was 27.8 µM.

And the GI50 [47]?
The GI50 was 7.48 µM.

What about the TGI [47] of the same compound?
The TGI was 21.6 µM.

What about the GI50 [48] of the same compound?
Its GI50 is 8.33 µM.

What about the TGI [48] of the same compound?
Its TGI is 21.8 µM.

And the GI50 [49]?
Its GI50 is 8.77 µM.

And the TGI [49]?
Its TGI is 57.7 µM.

What about the GI50 [50] of the same compound?
Its GI50 is 9.92 µM.

What about the TGI [50] of the same compound?
The TGI was 25 µM.

And the GI50 [51]?
The GI50 was 7.04 µM.

What about the TGI [51] of the same compound?
Its TGI is 27.7 µM.

What about the GI50 [52] of the same compound?
Its GI50 is 5.36 µM.

What about the TGI [52] of the same compound?
Its TGI is 20.4 µM.

And the GI50 [53]?
Its GI50 is 5.51 µM.

And the TGI [53]?
Its TGI is 18.9 µM.

What about the GI50 [54] of the same compound?
Its GI50 is 14 µM.

What about the TGI [54] of the same compound?
Its TGI is 32.7 µM.

And the GI50 [55]?
Its GI50 is 2.82 µM.

And the TGI [55]?
Its TGI is 15.9 µM.

And the GI50 [56]?
The GI50 was 5.54 µM.

What about the TGI [56] of the same compound?
The TGI was 35 µM.

And the GI50 [57]?
The GI50 was 6.63 µM.

And the TGI [57]?
The TGI was 23.9 µM.
